Reference: patent publication US20250145589A1, “PYRIDINE DERIVATIVE AND USE THEREOF” (SICHUAN HUIYU PHARMACEUTICAL CO., LTD., priority 2021, published 2025)
Like-named read-outs stand apart in the source and are kept apart here.

Legend:
PI3Kα = PI3Kα (Homo sapiens (Human), UniProt P42336); test: Inhibition of PI3Kα efficacy assay (ADP-Glo kinase assay); assay type: biochemical; settings: read-out: PI3Kα inhibitory activity (IC50)
Method: Inhibition of PI3Kα Efficacy assay The ADP-Glo™ kinase assay was used to assess the inhibition of PI3Kα with our compounds. The utilized proteins and assay reagents were obtained from the ADP-Glo™ Kinase Assay Kit (Promega). Initially, a 2 mM stock solution of the test compound (dissolved in DMSO) was serially diluted in five-fold concentrations using DMSO to obtain eight working solutions 1 (200′). […] Subsequently, 2 μL of 2.5×PI and ATP solution mixture were added to each well, mixed, and incubated at RT for 60 minutes. Then, 5 μL of ADP-Glo (containing 10 mM MgCl2) reagent was added to each well, mixed, and incubated at RT for 40 minutes. Finally, 10 μL of the Kinase Detection Reagent was added to each well, mixed, and incubated at RT for 40 minutes. […] Data were analyzed using GraphPad Prism with log(inhibitor) vs. response—Variable Slope(four parameters) fitting calculations for […]. (Note: The negative control refers to the group without inhibitor, and the blank control refers to the group without enzyme.) The data were presented in Tables 1 to 4.

PI3Kδ = PI3Kδ (Homo sapiens (Human), UniProt O00329); test: Inhibition of PI3Kδ efficacy assay (ADP-Glo kinase assay); assay type: biochemical; settings: read-out: PI3Kδ inhibitory activity (IC50)
PI3Kδ, sequence (O00329 whole entry): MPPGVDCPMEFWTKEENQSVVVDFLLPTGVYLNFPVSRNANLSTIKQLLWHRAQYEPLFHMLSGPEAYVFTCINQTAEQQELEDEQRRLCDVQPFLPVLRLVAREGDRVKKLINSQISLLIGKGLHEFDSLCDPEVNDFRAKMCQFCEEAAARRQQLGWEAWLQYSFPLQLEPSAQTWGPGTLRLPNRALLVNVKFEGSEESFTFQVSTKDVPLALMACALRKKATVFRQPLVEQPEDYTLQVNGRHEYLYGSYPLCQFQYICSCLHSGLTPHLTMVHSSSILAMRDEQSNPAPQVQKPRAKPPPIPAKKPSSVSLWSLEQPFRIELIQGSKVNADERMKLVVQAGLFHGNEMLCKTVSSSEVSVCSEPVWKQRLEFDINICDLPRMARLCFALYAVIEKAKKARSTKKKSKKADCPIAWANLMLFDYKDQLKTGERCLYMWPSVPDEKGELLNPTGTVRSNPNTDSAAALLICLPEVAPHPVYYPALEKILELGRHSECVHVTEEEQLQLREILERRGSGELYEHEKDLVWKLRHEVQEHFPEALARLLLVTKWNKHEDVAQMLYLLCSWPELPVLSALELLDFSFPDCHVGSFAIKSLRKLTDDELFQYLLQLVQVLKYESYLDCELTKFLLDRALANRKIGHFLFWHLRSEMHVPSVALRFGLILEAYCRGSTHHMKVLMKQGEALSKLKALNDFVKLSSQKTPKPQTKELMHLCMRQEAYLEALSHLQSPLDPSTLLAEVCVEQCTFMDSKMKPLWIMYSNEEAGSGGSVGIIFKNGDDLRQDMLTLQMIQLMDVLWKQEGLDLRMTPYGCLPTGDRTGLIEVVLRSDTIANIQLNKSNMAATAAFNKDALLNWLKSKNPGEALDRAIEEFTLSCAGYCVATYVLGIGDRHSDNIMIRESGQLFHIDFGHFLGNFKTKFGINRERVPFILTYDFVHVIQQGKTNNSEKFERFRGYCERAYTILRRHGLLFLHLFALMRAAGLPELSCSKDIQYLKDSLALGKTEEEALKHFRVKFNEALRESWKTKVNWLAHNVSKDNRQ
PI3Kδ, sequence (P27986 whole entry partner): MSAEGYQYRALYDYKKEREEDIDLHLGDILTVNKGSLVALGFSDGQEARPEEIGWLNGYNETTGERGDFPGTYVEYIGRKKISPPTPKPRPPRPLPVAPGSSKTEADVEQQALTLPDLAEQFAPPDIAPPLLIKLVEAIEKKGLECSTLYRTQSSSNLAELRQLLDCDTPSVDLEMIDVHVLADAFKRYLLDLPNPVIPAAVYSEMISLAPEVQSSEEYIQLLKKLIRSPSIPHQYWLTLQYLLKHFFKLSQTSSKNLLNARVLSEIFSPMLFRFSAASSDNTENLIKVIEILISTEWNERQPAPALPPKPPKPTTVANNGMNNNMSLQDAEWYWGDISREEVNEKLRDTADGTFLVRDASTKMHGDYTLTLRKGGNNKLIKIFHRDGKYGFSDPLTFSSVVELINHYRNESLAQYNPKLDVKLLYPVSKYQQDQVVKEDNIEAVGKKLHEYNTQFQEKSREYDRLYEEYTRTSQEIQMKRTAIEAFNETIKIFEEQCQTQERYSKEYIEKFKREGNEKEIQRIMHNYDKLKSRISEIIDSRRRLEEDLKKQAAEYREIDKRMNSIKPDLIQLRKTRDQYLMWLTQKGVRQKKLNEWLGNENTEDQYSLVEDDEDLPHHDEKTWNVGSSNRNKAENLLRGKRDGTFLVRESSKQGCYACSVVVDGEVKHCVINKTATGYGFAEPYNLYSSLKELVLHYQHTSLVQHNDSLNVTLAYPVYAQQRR
Method: Test Example 2: Inhibition of PI3Kδ Efficacy assay The ADP-Glo™ kinase assay was used to assess the inhibition of PI3Kδ with our compounds. The utilized proteins and assay reagents were obtained from the ADP-Glo™ Kinase Assay Kit (Promega). Initially, a 2 mM stock solution of the test compound (dissolved in DMSO) was serially diluted in five-fold concentrations using DMSO to obtain eight working solutions 1 (200×) Subsequently, each of the eight working solutions 1 was further diluted in a 20-fold gradient by adding 5 μL into 95 μL of ddH2O, resulting in eight working solutions 2 (10×). […] Subsequently, 2 μL of 2.5×PI and ATP solution mixture were added to each well, mixed, and incubated at RT for 60 minutes. Then, 5 μL of ADP-Glo (containing 10 mM MgCl2) reagent was added to each well, mixed, and incubated at RT for 40 minutes. Finally, 10 μL of the Kinase Detection Reagent was added to each well, mixed, and incubated at RT for 40 minutes. Luminescence values were recorded using a multi-mode microplate reader with luminescence channel settings, and the inhibitory rate was calculated using the following formula: [formula] Data were analyzed using GraphPad Prism with log(inhibitor) vs. response—Variable Slope(four parameters) fitting calculations for IC50 values.

[1] = test system: NCI-H358 cells (KRAS G12C mutant); test: NCI-H358 cell proliferation inhibition (CellTiter-Glo); assay type: cell-based; settings: Homo sapiens, NCI-H358, 72 h; H358 cells (G12C mutation), 3 days, Table 6; read-out: NCI-H358 (IC50)
Method: The CellTiter-Glo®, assay was used to detect the number of viable cells, in order to evaluate the anti-proliferation efficacy of compounds. […] The compounds were serially diluted 5-fold in DMSO to obtain 8 concentrations, and then further diluted with RPMI-640 (10% FBS) cell culture medium to obtain the working solutions (5′), 20 μL of each working solution was added to the cell culture supernatant in each well, and the plate was further incubated for 3 days at 37° C. with 5% CO2. The plate was then equilibrated with CellTiter-Glo® reagent at room temperature (25° C.) for 10-30 minutes. After aspirating 50 μL of the medium, 50 μL of CellTiter-Glo® reagent was added. The cells were thoroughly mixed with the CellTiter-Glo® reagent using a microplate shaker for 2 minutes, and then incubated at room temperature for 10 minutes. The 96-well plate was placed in a multi-mode microplate reader to record the luminescence values (RLU). The inhibition rate was calculated through the following equation: [formula] Data were analyzed using GraphPad Prism for IC50 values (Note: The negative control refers to the group without inhibitor).

PI3Kα, sequence (P42336 whole entry): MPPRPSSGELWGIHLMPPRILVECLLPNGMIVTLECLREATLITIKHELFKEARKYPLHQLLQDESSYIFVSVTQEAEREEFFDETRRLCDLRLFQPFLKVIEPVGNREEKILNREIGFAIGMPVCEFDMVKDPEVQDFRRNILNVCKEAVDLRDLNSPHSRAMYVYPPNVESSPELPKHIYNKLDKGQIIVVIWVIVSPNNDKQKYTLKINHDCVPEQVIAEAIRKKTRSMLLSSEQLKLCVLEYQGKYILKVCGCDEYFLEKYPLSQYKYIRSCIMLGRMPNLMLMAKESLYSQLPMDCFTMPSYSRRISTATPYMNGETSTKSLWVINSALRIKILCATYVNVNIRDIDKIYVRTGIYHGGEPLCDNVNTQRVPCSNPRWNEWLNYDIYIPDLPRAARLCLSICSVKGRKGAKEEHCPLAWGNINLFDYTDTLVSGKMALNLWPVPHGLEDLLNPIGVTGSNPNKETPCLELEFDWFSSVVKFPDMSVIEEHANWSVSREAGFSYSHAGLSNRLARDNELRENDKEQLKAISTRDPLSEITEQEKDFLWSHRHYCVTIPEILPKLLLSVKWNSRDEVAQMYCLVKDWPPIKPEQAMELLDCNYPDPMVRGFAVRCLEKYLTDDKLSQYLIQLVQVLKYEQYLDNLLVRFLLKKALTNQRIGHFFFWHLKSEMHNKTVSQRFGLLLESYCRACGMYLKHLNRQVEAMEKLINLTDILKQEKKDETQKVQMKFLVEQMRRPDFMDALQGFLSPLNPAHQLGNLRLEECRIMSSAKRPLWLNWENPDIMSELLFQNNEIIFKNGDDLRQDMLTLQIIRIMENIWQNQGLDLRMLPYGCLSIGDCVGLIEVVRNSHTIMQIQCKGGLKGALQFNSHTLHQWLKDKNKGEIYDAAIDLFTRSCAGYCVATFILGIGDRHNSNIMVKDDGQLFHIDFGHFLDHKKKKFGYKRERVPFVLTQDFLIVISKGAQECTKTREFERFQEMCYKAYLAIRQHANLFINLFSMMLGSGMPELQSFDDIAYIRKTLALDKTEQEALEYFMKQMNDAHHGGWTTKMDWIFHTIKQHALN
PI3Kα, sequence (P27986 whole entry partner): as the sequence (P27986 whole entry partner) above

| SMILES | IC50 (PI3Kα; Table 1) [nM] | IC50 (PI3Kδ; Table 1) [nM] | IC50 [1] [nM] | IC50 (PI3Kδ; Table 2) [nM] | further results |
| --- | --- | --- | --- | --- | --- |
| C=C(F)C(=O)N1CCN(c2ncnc3ccc(-c4cnc(OC)c(NS(=O)(=O)c5ccc(F)cc5F)c4)cc23)[C@@H](C)C1 [Example 9, (S)-2,4-difluoro-N-(5-(4-(4-(2-fluoroacryloyl)-2-methylpiperazin-1-yl)quinazolin-6-yl)-2-methoxypyridin-3-yl)benzenesulfonamide] | 0.56 | 9.05 | 350 |  |  |
| C=CC(=O)N1CC2(CCN(c3ncnc4ccc(-c5cnc(OC)c(NS(=O)(=O)c6ccc(F)cc6F)c5)cc34)C2)C1 [Example 12, N-(5-(4-(2-acryloyl-2,6-diazaspiro[3.4]octan-6-yl)quinazolin-6-yl)-2-methoxypyridin-3-yl)-2,4-difluorobenzenesulfonamide] | 9.3 | 77.4 | 50.6 |  |  |
| C=CC(=O)N1C[C@H](C)N(c2ncnc3ccc(-c4cnc(OC)c(NS(=O)(=O)c5ccc(F)cc5F)c4)cc23)C[C@H]1C [Example 14, N-(5-(4-((2S,5R)-4-acryloyl-2,5-dimethylpiperazin-1-yl)quinazolin-6-yl)-2-methoxypyridin-3-yl)-2,4-difluorobenzenesulfonamide] | 9.5 | 62.1 | 233 |  |  |
| COc1ncc(-c2ccc3ncnc(N4CCN(C(=O)/C=C/CF)CC4)c3c2)cc1NS(=O)(=O)c1ccc(F)cc1F [Example 16, (E)-2,4-difluoro-N-(5-(4-(4-(4-fluorobut-2-enoyl)piperazin-1-yl)quinazolin-6-yl)-2-methoxypyridin-3-yl)benzenesulfonamide] | 0.26 | 28.5 | 35.2 |  |  |
| C=CC(=O)N1CC2(CCN(c3ncnc4ccc(-c5cnc(OC)c(NS(=O)(=O)c6ccc(F)cc6F)c5)cc34)CC2)C1 [Example 18, N-(5-(4-(2-acryloyl-2,7-diazaspiro[3.5]nonan-7-yl)quinazolin-6-yl)-2-methoxypyridin-3-yl)-2,4-difluorobenzenesulfonamide] | 1.2 | 12.5 | 60.1 |  |  |
| C=C(F)C(=O)N1CC2(CCN(c3ncnc4ccc(-c5cnc(OC)c(NS(=O)(=O)c6ccc(F)cc6F)c5)cc34)CC2)C1 [Example 19, 2,4-difluoro-N-(5-(4-(2-(2-fluoroacryloyl)-2,7-diazaspiro[3.5]nonan-7-yl)quinazolin-6-yl)-2-methoxypyridin-3-yl)benzenesulfonamide] | 4.7 | 57.8 | 22 |  |  |
| C=CC(=O)N1CCN(c2ncnc3ccc(-c4cnc(OC)c(NS(=O)(=O)c5c(F)cccc5F)c4)cc23)CC1 [Example 21, N-(5-(4-(4-acryloylpiperazin-1-yl)quinazolin-6-yl)-2-methoxypyridin-3-yl)-2,6-difluorobenzenesulfonamide] | 5.8 | 58.2 | 27 |  |  |
| C=CC(=O)N1CCN(c2ncnc3ccc(-c4cncc(NS(=O)(=O)c5ccc(F)cc5F)c4)cc23)CC1 [Example 27, N-(5-(4-(4-acryloylpiperazin-1-yl)quinazolin-6-yl)pyridin-3-yl)-2,4-difluorobenzenesulfonamide] | 1.8 | 27.3 |  |  |  |
| CC(=O)/C=C/C(=O)N1CCN(c2ncnc3ccc(-c4cncc(NS(=O)(=O)c5ccc(F)cc5F)c4)cc23)CC1 [Example 28, (E)-2,4-difluoro-N-(5-(4-(4-(4-oxopent-2-enoyl)piperazin-1-yl)quinazolin-6-yl)pyridin-3-yl)benzenesulfonamide] | 1.8 | 49.7 |  |  |  |
| C=CC(=O)N1CCN(c2nc(N)nc3ccc(-c4cnc(OC)c(NS(=O)(=O)c5ccc(F)cc5F)c4)cc23)CC1 [Example 30, N-(5-(4-(4-acryloylpiperazin-1-yl)-2-aminoquinazolin-6-yl)-2-methoxypyridin-3-yl)-2,4-difluorobenzenesulfonamide] | 430 | 1840 |  |  |  |
| C=CC(=O)N1CCN(c2nc(C#N)nc3ccc(-c4cnc(OC)c(NS(=O)(=O)c5ccc(F)cc5F)c4)cc23)CC1 [Example 31, N-(5-(4-(4-acryloylpiperazin-1-yl)-2-cyanoquinazolin-6-yl)-2-methoxypyridin-3-yl)-2,4-difluorobenzenesulfonamide] | 149 | 336 |  |  |  |
| C=CC(=O)N1CCN(c2nc(O)nc3ccc(-c4cnc(OC)c(NS(=O)(=O)c5ccc(F)cc5F)c4)cc23)CC1 [Example 32, N-(5-(4-(4-acryloylpiperazin-1-yl)-2-hydroxyquinazolin-6-yl)-2-methoxypyridin-3-yl)-2,4-difluorobenzenesulfonamide] | 2260 | > 5000 |  |  |  |
| C=CC(=O)N1CCN(c2ncnc3ccc(-c4cnc(OC)c(NS(=O)(=O)c5ccc(Cl)s5)c4)cc23)CC1 [Example 37, N-(5-(4-(4-acryloylpiperazin-1-yl)quinazolin-6-yl)-2-methoxypyridin-3-yl)-5-chlorothiophene-2-sulfonamide] | 1.3 | 20.1 |  |  |  |
| C=CC(=O)N1CCN(c2ncnc3ccc(-c4cnc(OC)c(N(C)S(=O)(=O)c5c(F)cccc5F)c4)cc23)CC1 [Example 82, N-(5-(4-(4-acryloylpiperazin-1-yl)quinazolin-6-yl)-2-methoxypyridin-3-yl)-2,6-difluoro-N-methylbenzenesulfonamide] |  |  |  | 75.6 | IC50 (PI3Kα; Table 2): 89.9 nM |
| CNc1ncc(-c2ccc3ncnc(N4CCN(C(=O)/C=C/C(C)=O)CC4)c3c2)cc1NS(=O)(=O)c1ccc(F)cc1F [Example 105, (E)-2,4-difluoro-N-(2-(methylamino)-5-(4-(4-(4-oxopent-2-enoyl)piperazin-1-yl)quinazolin-6-yl)pyridin-3-yl)benzenesulfonamide] |  |  |  | 38.5 | IC50 (PI3Kα; Table 2): 8.6 nM |
| C=CC(=O)N1CCN(c2ncnc3ccc(-c4cnc(OC5CCCC5)c(NS(=O)(=O)c5ccc(F)cc5F)c4)cc23)CC1 [Example 106, N-(5-(4-(4-acryloylpiperazin-1-yl)quinazolin-6-yl)-2-(cyclopentyloxy)pyridin-3-yl)-2,4-difluorobenzenesulfonamide] |  |  |  | 117 | IC50 (PI3Kα; Table 2): 117 nM |
| C=C(F)C(=O)N1CCN(c2ncnc3ccc(-c4cnc(OC5CCCC5)c(NS(=O)(=O)c5ccc(F)cc5F)c4)cc23)CC1 [Example 108, N-(2-(cyclopentyloxy)-5-(4-(4-(2-fluoroacryloyl)piperazin-1-yl)quinazolin-6-yl)pyridin-3-yl)-2,4-difluorobenzenesulfonamide] |  |  |  | 268 | IC50 (PI3Kα; Table 2): 161 nM |
| C=CC(=O)N1CCN(c2ncnc3ccc(-c4cnc(OC)c(NCc5ccc(F)cc5F)c4)cc23)CC1 [Example 126, 1-(4-(6-(5-((2,4-difluorobenzyl)amino)-6-methoxypyridin-3-yl)quinazolin-4-yl)piperazin-1-yl)prop-2-en-1-one] |  |  |  | 52.7 | IC50 (PI3Kα; Table 2): 131 nM |
| CC(=O)/C=C/C(=O)N1CCN(c2ncnc3ccc(-c4cnc(O)c(NS(=O)(=O)c5ccc(F)cc5F)c4)cc23)CC1 [Example 129, (E)-2,4-difluoro-N-(2-hydroxy-5-(4-(4-(4-oxopent-2-enoyl)piperazin-1-yl)quinazolin-6-yl)pyridin-3-yl)benzenesulfonamide] |  |  |  | 142 |  |
| COc1ncc(-c2nc(N3CCOCC3)nc3c(CN4CCC(C(C)(C)O)CC4)cc(F)cc23)cc1NS(C)(=O)=O [Linperlisib, reference compound] |  | 18 |  |  |  |
| CCOc1c([C@H](C)n2nc(C)c3c(N)ncnc32)cc(Cl)c(F)c1[C@@H]1CNC(=O)C1 [Parsaclisib, reference compound] |  |  |  | 8 | IC50 (PI3Kδ; Table 3): 6 nM; IC50 (PI3Kδ; Table 4): 4 nM |
